Assay results taken from patent publication US11414425B2 (priority 2018, dated 2022).
Where two headings read alike, the source gives them in different places.

Tests used:
GABAA receptors (α5β2γ2) = biological target: T1, GABAA receptors (α5β2γ2) (Homo sapiens, UniProt P18507+P31644); assay: Positive allosteric modulator activity: potentiation of EC20 GABA current in oocytes; type: cell-based; conditions: read-out: GABA α5 Functional Data (potentiation of EC20 GABA); @ 100 nM; ranges
T1 construct: expressed in transfected cells
T1 sequence (P31644 32-462): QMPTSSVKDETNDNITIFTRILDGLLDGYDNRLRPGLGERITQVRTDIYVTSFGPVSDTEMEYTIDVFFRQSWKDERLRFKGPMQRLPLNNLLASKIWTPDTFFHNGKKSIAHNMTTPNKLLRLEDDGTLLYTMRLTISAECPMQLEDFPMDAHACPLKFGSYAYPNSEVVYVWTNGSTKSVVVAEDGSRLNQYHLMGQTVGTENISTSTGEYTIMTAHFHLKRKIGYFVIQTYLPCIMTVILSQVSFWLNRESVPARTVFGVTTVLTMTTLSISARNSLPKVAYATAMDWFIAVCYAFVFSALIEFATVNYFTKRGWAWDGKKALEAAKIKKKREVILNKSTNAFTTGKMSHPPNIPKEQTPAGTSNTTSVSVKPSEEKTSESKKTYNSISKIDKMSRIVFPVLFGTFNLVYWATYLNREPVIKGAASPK
T1 sequence (P47870 25-512, further chain): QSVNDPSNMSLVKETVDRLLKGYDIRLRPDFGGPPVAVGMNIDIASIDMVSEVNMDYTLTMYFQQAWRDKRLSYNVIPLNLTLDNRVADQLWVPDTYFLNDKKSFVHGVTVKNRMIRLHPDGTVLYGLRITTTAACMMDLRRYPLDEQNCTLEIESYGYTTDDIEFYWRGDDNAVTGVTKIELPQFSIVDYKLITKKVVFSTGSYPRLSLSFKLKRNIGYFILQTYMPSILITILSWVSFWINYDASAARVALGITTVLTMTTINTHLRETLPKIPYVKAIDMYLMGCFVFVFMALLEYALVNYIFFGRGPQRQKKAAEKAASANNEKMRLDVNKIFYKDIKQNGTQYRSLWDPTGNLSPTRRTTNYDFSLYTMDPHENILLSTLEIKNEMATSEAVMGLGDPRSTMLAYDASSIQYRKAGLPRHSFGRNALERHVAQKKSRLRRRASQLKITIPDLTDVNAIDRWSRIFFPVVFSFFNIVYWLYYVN
T1 sequence (P18507 40-475): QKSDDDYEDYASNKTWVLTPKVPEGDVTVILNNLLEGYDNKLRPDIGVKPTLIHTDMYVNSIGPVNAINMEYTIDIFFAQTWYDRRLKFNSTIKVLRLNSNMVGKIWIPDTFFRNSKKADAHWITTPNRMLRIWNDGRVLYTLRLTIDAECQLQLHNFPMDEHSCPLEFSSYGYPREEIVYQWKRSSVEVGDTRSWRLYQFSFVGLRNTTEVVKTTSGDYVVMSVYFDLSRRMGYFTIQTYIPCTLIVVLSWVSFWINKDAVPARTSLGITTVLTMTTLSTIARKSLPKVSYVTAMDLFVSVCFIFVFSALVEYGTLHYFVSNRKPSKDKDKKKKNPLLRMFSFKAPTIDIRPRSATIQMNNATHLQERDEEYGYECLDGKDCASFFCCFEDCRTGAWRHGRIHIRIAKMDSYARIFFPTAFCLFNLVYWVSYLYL
Experimental: On day 1, 1 ng/32 nL of GABAA α5β2γ2 cDNA was injected into one oocyte. Test starts on day 2. The cDNA injected to the oocytes was a mix of alpha, beta and gamma, their ratio is 1:1:10 (by weight) and the total weight of the mixed 3 subunits to be injected in one oocyte was 1 ng in 32 nl volume. The injected oocytes can also be tested on day 3. In such case, the cDNA amount injected to the oocytes should be reduced by 20%.
1). 8 oocytes were placed in 8 chambers of OpusXpress and superfused with Modified Barth's Saline (MBS) at 3 mL/min. Glass electrodes back-filled with 3M KCl (0.5-3 megaohms) were used.
1). New oocytes were used to run new test.
3). […] Oocytes were washed with MBS for 5-10 min.
4). […] Itest was divided by IGABA to obtain potentiation (%).
Test Compounds at Multiple Doses • 1). Repeat the above steps 1), 2) and 3) in the control test. • 2). […] Divide Itest by IGABA to obtain potentiation (%). • 3). Discard all tested oocytes, new oocytes were used and the above steps 1) and 2) were repeated to test second concentration of the same compound. Each oocyte was used for only one concentration test for a single test compound. The steps were repeated for other test compounds.

α5β3γ2 GABAA receptors = α5β3γ2 GABAA receptors (Homo sapiens, UniProt P18507+P31644); assay: [3H]Ro15-1788 binding, membranes of Ltk cells stably expressing α5β3γ2 GABAA receptors
Chain of α5β3γ2 GABAA receptors (P31644 32-462): as the sequence (P31644 32-462) above
Chain of α5β3γ2 GABAA receptors (P28472 26-473 partner): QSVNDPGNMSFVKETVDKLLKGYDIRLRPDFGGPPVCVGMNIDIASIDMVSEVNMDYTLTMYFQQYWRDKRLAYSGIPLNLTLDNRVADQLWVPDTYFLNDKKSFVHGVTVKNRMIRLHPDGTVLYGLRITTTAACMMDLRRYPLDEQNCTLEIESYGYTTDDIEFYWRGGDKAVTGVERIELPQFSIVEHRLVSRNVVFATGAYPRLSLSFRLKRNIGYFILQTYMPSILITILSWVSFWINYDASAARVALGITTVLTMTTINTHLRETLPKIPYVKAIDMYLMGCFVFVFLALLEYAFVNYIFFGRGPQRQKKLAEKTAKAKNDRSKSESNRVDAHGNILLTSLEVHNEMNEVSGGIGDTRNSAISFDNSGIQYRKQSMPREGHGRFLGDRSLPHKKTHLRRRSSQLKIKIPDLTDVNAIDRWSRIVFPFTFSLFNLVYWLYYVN
Chain of α5β3γ2 GABAA receptors (P18507 40-475): as the sequence (P18507 40-475) above

[1] = ranges, inhibition of [3H]Ro15-1788 binding

Compound: CCOC(=O)c1ncn2c1Cc1c(Cc3cccnc3)nnn1-c1cc(C)ccc1-2 [Compound 111]
- activation at 0.1 µM (GABAA receptors (α5β2γ2)): 20 to 50%
- Ki (α5β3γ2 GABAA receptors; [1]): < 100 nM

Compound: COCc1nnc2n1Cc1c(C3=NC(C)CO3)ncn1-c1ccc(Cl)cc1-2 (stereo not shown) [Compound 243]
- activation at 0.1 µM (GABAA receptors (α5β2γ2)): 20 to 50%
- Ki (α5β3γ2 GABAA receptors; [1]): < 100 nM

Compound: COc1ccc2c(c1)-n1nncc1Cc1c(C3=N[C@H](c4ccccc4)CO3)ncn1-2 [Compound 290]
- activation at 0.1 µM (GABAA receptors (α5β2γ2)): 20 to 50%
- Ki (α5β3γ2 GABAA receptors; [1]): < 100 nM

Compound: C#Cc1ccc2c(c1)-c1nnc(COC)n1Cc1c(C3=N[C@@H](c4ccccc4)CO3)ncn1-2 [Compound 301]
- activation at 0.1 µM (GABAA receptors (α5β2γ2)): 5 to 20%
- Ki (α5β3γ2 GABAA receptors; [1]): < 100 nM

Compound: Clc1ccc2c(c1)-c1nnc(COCc3ccccc3)n1Cc1c(-c3ncco3)ncn1-2 [Compound 350]
- activation at 0.1 µM (GABAA receptors (α5β2γ2)): > 50%

Compound: C#Cc1ncn2c1Cn1c(COc3ccccc3F)nnc1-c1cc(Cl)ccc1-2 [Compound 353, 15-chloro-5-ethynyl-9-(2-fluorophenoxymethyl)-2,4,8,10,11-pentaazatetracyclo[11.4.0.0^2,6.0^8,12]heptadeca-1(17),3,5,9,11,13,15-heptaene]
- activation at 0.1 µM (GABAA receptors (α5β2γ2)): > 50%

Compound: C#Cc1ncn2c1Cc1cnnn1-c1cc(Cl)ccc1-2 [Compound 356]
- activation at 0.1 µM (GABAA receptors (α5β2γ2)): > 50%

Compound: COc1ccc2c(c1)-n1nncc1Cc1c(C3=N[C@@H](c4ccc(F)cc4)CO3)ncn1-2 [Compound 367]
- activation at 0.1 µM (GABAA receptors (α5β2γ2)): 5 to 20%
- Ki (α5β3γ2 GABAA receptors; [1]): < 100 nM

Compound: COc1ccc2c(c1)-n1nncc1Cc1c(C#CCc3cccc(Cl)c3)ncn1-2 [Compound 417]
- activation at 0.1 µM (GABAA receptors (α5β2γ2)): 5 to 20%

Compound: COc1ccc2c(c1)-n1nncc1Cc1c(C#CCc3cccc(F)c3)ncn1-2 [Compound 419]
- activation at 0.1 µM (GABAA receptors (α5β2γ2)): 20 to 50%

Compound: COc1ccc2c(c1)-n1nncc1Cc1c(C#CCc3ccccc3OC(F)(F)F)ncn1-2 [Compound 420]
- activation at 0.1 µM (GABAA receptors (α5β2γ2)): 5 to 20%

Compound: COCc1nnc2n1Cc1c(C#CCc3cccc(F)c3)ncn1-c1ccc(Cl)cc1-2 [Compound 421]
- activation at 0.1 µM (GABAA receptors (α5β2γ2)): 20 to 50%

Compound: COCc1nnc2n1Cc1c(C#CCc3cccc(Cl)c3)ncn1-c1ccc(Cl)cc1-2 [Compound 422]
- activation at 0.1 µM (GABAA receptors (α5β2γ2)): 20 to 50%

Compound: COCc1nnc2n1Cc1c(C#CCc3cccc(OC(F)(F)F)c3)ncn1-c1ccc(Cl)cc1-2 [Compound 423]
- activation at 0.1 µM (GABAA receptors (α5β2γ2)): 5 to 20%

Compound: CC(C)C#Cc1ccc2c(c1)-n1nncc1Cc1c(Br)ncn1-2 [Compound 454]
- activation at 0.1 µM (GABAA receptors (α5β2γ2)): 5 to 20%

Compound: Cc1noc(-c2ncn3c2Cc2cnnn2-c2cc(Br)ccc2-3)n1 [Compound 473]
- activation at 0.1 µM (GABAA receptors (α5β2γ2)): 5 to 20%
- Ki (α5β3γ2 GABAA receptors; [1]): < 100 nM

Compound: Cc1noc(-c2ncn3c2Cc2cnnn2-c2cc(-c4ccccc4)ccc2-3)n1 [Compound 474]
- activation at 0.1 µM (GABAA receptors (α5β2γ2)): 5 to 20%
- Ki (α5β3γ2 GABAA receptors; [1]): < 100 nM

Compound: FC(F)(F)c1ccc2c(c1)-n1nncc1Cc1c(-c3ncco3)ncn1-2 [Compound 475]
- activation at 0.1 µM (GABAA receptors (α5β2γ2)): 5 to 20%
- Ki (α5β3γ2 GABAA receptors; [1]): < 100 nM

Compound: FC(F)(F)Oc1ccc2c(c1)-n1nncc1Cc1c(-c3ncco3)ncn1-2 [Compound 476]
- activation at 0.1 µM (GABAA receptors (α5β2γ2)): 5 to 20%
- Ki (α5β3γ2 GABAA receptors; [1]): < 100 nM

Compound: CC(C)c1noc(-c2ncn3c2Cc2c(Cc4cccc(F)c4)nnn2-c2cc(Cl)ccc2-3)n1 [Compound 481]
- activation at 0.1 µM (GABAA receptors (α5β2γ2)): 5 to 20%
- Ki (α5β3γ2 GABAA receptors; [1]): < 100 nM

Compound: Cc1noc(-c2ncn3c2Cc2c(Cc4cccc(F)c4)nnn2-c2cc(C(F)(F)F)ccc2-3)n1 [Compound 482]
- activation at 0.1 µM (GABAA receptors (α5β2γ2)): 20 to 50%
- Ki (α5β3γ2 GABAA receptors; [1]): < 100 nM

Compound: Cc1noc(-c2ncn3c2Cc2c(Cc4cccc(F)c4)nnn2-c2cc(OC(F)(F)F)ccc2-3)n1 [Compound 485]
- activation at 0.1 µM (GABAA receptors (α5β2γ2)): 5 to 20%
- Ki (α5β3γ2 GABAA receptors; [1]): < 100 nM

Compound: Cc1noc(-c2ncn3c2Cc2c(Cc4cccc(F)c4)nnn2-c2cc(OC(F)F)ccc2-3)n1 [Compound 491]
- activation at 0.1 µM (GABAA receptors (α5β2γ2)): 20 to 50%
- Ki (α5β3γ2 GABAA receptors; [1]): < 100 nM

Compound: CC1(C)OC(c2ncn3c2Cc2cnnn2-c2cc(OC(F)F)ccc2-3)=N[C@H]1c1ccccc1 [Compound 626]
- Ki (α5β3γ2 GABAA receptors; [1]): 100 to 1000 nM

Compound: Clc1ccc2c(c1)-n1nncc1Cc1c(C3=NCC(c4ccncc4)O3)ncn1-2 (stereo not shown) [Compound 629]
- Ki (α5β3γ2 GABAA receptors; [1]): < 100 nM

Compound: COCc1nnn2c1Cc1c(C3=NC[C@@H](c4ccc(Cl)cc4)O3)ncn1-c1ccc(Cl)cc1-2 [Compound 634]
- Ki (α5β3γ2 GABAA receptors; [1]): < 100 nM

Compound: COCc1nnn2c1Cc1c(C#Cc3ccnn3C)ncn1-c1ccc(Cl)cc1-2 [Compound 642]
- Ki (α5β3γ2 GABAA receptors; [1]): < 100 nM

Compound: COCc1nnn2c1Cc1c(C#Cc3ccn(C)n3)ncn1-c1ccc(Cl)cc1-2 [Compound 643]
- Ki (α5β3γ2 GABAA receptors; [1]): < 100 nM

Compound: COCc1nnn2c1Cc1c(C#Cc3cnc(OC)s3)ncn1-c1ccc(OC)cc1-2 [Compound 647]
- Ki (α5β3γ2 GABAA receptors): < 100 nM

Compound: COCc1nnc2n1Cc1c(C#Cc3c[nH]nc3OC)ncn1-c1ccc(OC)cc1-2 [Compound 657]
- Ki (α5β3γ2 GABAA receptors; [1]): < 100 nM

Compound: Clc1ccc2c(c1)-n1nncc1Cc1c(C#Cc3cnc4occc4c3)ncn1-2 [Compound 658]
- Ki (α5β3γ2 GABAA receptors): < 100 nM

Compound: Cc1ncc(C#Cc2ncn3c2Cc2cnnn2-c2cc(Cl)ccc2-3)[nH]1 [Compound 659]
- Ki (α5β3γ2 GABAA receptors): < 100 nM

Compound: Cn1nccc1C#Cc1ncn2c1Cc1cnnn1-c1cc(Cl)ccc1-2 [Compound 660]
- Ki (α5β3γ2 GABAA receptors; [1]): < 100 nM

Compound: Cn1ccc(C#Cc2ncn3c2Cc2cnnn2-c2cc(Cl)ccc2-3)n1 [Compound 661]
- Ki (α5β3γ2 GABAA receptors): < 100 nM

Compound: COc1n[nH]cc1C#Cc1ncn2c1Cc1cnnn1-c1cc(Cl)ccc1-2 [Compound 662]
- Ki (α5β3γ2 GABAA receptors): < 100 nM

Compound: COCc1nnc2n1Cc1c(C#Cc3c[nH]nc3OC)ncn1-c1ccc(Cl)cc1-2 [Compound 664]
- Ki (α5β3γ2 GABAA receptors; [1]): < 100 nM

Compound: COCc1nnc2n1Cc1c(C#Cc3ccc(SC)nc3)ncn1-c1ccc(OC)cc1-2 [Compound 665]
- Ki (α5β3γ2 GABAA receptors; [1]): 100 to 1000 nM

Compound: COCc1nnc2n1Cc1c(C#Cc3ccc4nccn4c3)ncn1-c1ccc(OC)cc1-2 [Compound 684]
- Ki (α5β3γ2 GABAA receptors; [1]): 100 to 1000 nM

Compound: COCc1nnc2n1Cc1c(C#Cc3cnc(C)[nH]3)ncn1-c1ccc(OC)cc1-2 [Compound 685]
- activation at 0.1 µM (GABAA receptors (α5β2γ2)): > 50%

Compound: COCc1nnc2n1Cc1c(C#Cc3ccnn3C)ncn1-c1ccc(OC)cc1-2 [Compound 686]
- activation at 0.1 µM (GABAA receptors (α5β2γ2)): > 50%

Compound: COCc1nnc2n1Cc1c(C#Cc3ccn(C)n3)ncn1-c1ccc(OC)cc1-2 [Compound 687]
- activation at 0.1 µM (GABAA receptors (α5β2γ2)): > 50%

Compound: COc1ccc2c(c1)-n1nncc1Cc1c(C3=NC[C@@H](c4cccc(F)c4)O3)ncn1-2 [Compound 692]
- Ki (α5β3γ2 GABAA receptors): < 100 nM

Compound: COc1ccc2c(c1)-n1nncc1Cc1c(C#Cc3ccc(OC(F)F)nc3)ncn1-2 [Compound 693]
- Ki (α5β3γ2 GABAA receptors): < 100 nM

Compound: COc1ccc2c(c1)-n1nncc1Cc1c(C#Cc3ccc(OC)nn3)ncn1-2 [Compound 694]
- Ki (α5β3γ2 GABAA receptors; [1]): < 100 nM

Compound: CC(C)Oc1ccc(C#Cc2ncn3c2Cc2cnnn2-c2cc(Cl)ccc2-3)cn1 [Compound 697]
- Ki (α5β3γ2 GABAA receptors): < 100 nM

Compound: COCc1nnc2n1Cc1c(C#Cc3ccc(OCC4CC4)nc3)ncn1-c1ccc(Cl)cc1-2 [Compound 700]
- Ki (α5β3γ2 GABAA receptors; [1]): < 100 nM

Compound: Clc1ccc2c(c1)-n1nncc1Cc1c(C#Cc3ccc(-n4cccc4)cc3)ncn1-2 [Compound 702]
- Ki (α5β3γ2 GABAA receptors; [1]): < 100 nM

Compound: COCc1nnc2n1Cc1c(C#Cc3ccc(OC(C)C)nc3)ncn1-c1ccc(Cl)cc1-2 [Compound 708]
- Ki (α5β3γ2 GABAA receptors; [1]): < 100 nM

Compound: CCOc1ccc(C#Cc2ncn3c2Cn2c(COC)nnc2-c2cc(Cl)ccc2-3)cn1 [Compound 709]
- Ki (α5β3γ2 GABAA receptors; [1]): 100 to 1000 nM

Compound: COCc1nnc2n1Cc1c(C#Cc3ccc(-n4cccc4)cc3)ncn1-c1ccc(OC)cc1-2 [Compound 713]
- Ki (α5β3γ2 GABAA receptors; [1]): < 100 nM

Compound: COCc1nnc2n1Cc1c(C#Cc3ccc4ncccc4c3)ncn1-c1ccc(OC)cc1-2 [Compound 714]
- Ki (α5β3γ2 GABAA receptors; [1]): < 100 nM

Compound: Clc1ccc([C@@H]2CN=C(c3ncn4c3Cc3cnnn3-c3cc(Cl)ccc3-4)O2)cc1 [Compound 719]
- Ki (α5β3γ2 GABAA receptors; [1]): < 100 nM

Compound: Clc1ccc([C@H]2CN=C(c3ncn4c3Cc3cnnn3-c3cc(Cl)ccc3-4)O2)cc1 [Compound 720]
- Ki (α5β3γ2 GABAA receptors; [1]): < 100 nM

Compound: COCc1nnc2n1Cc1c(C#CC(C)(C)C)ncn1-c1ccc(Cl)cc1-2 [Compound 721]
- Ki (α5β3γ2 GABAA receptors; [1]): < 100 nM
